# Data reported in US4211772A, “Benzopyran glycoside acetals and ketals” (Laboratoires Sarget, priority 1977, dated 1980).
# Like-named read-outs stand apart in the source and are kept apart here.
# Tests used:
# [1] = test system: carragenin edema; assay: Anti-inflammatory activity: carragenin edema test; type: in vivo; settings: Rattus norvegicus, ip, substantially alkaline pH solution, read-out: % inhibition of carragenin edema; for inhibition in vivo at 150 mg/kg: 150 mg/kg i.p.; for inhibition in vivo at 200 mg/kg: 200 mg/kg i.p.; for inhibition in vivo at 300 mg/kg: 300 mg/kg i.p.; for inhibition in vivo at 100 mg/kg: 100 mg/kg i.p.
# Method: Anti-inflammatory activity
# This was determined by the carragenin edema test using male Wistar EOPS rats. Inflammation was induced by the injection of 0.1 ml of a suspension of 5% carragenin in physiological serum into the muscular bundle of the metatarsal region of the posterior paw of the animal. The test substance was administered i.p. in neutralized solution at the same time as the carragenin.
# Edema was measured by plethysmometry at different times after the administration of the carragenin.
# Tables IV and V show the percentages of inhibition as a function of time and of dosage for certain compounds of the present invention.
# The above results were obtained for solutions of substantially alkaline
# The reference experiments were performed using physiological serum brough
# to a pH approximately the same as the pH of the solutions to be tested.
# [2] = test system: capillary permeability; assay: Capillaroprotecting effects: capillary permeability; type: in vivo, conventional male Wistar rats
# Method: (§1) Capillaroprotecting effects
# The capillary permeability was determined by the method of Charlier et al, Arch. Inter. Physiol.
# [3] = i.p. toxicity in Swiss EOPS mice, mortality at 14 days; settings: mouse, in vivo, ip, DMSO solution at 1/2, read-out: percentages of mortality at the end of 14 days
# Method: The i.p. toxicities of certain compounds of the present invention were determined using male and female Swiss EOPS mice for administrations in DMSO solution at 1/2 under a volume of P/100.
# [4] = Solubilities in water; type: physicochemical; settings: water; read-out: Solubilities in water
# [5] = biological target: T1, Aldose Reductase (Bos taurus, UniProt P16116); assay: Inhibition of aldose reductase in vitro (enzyme from beef eye lenses, glyceraldehyde substrate); type: biochemical; settings: in DMF solution, read-out: percentages of inhibition (aldose reductase); for inhibition at 100 µM: 10^-4 mole/l; for inhibition at 10 µM: 10^-5 mole/l
# T1 construct: The enzyme is extracted from beef eye lenses; from tissue; host or cells: beef eye lenses
# Source text: Inhibition of Aldose Reductase In Vitro
# The reoxidation of NADPH coupled to the enzymatic reaction was followed spectrophotometrically at 340 nm.
# [6] = test system: capillary resistance; assay: Capillaroprotecting effects: capillary resistance; type: in vivo, male OFA EOPS rats
# Method: as §1
# The capillary resistance was determined by a variant of the method of Charlier et al, Arch. Inter. Physiol.
structure (smiles),measurement,setting,value
"COc1ccc(-c2cc(=O)c3c(O)cc(O[C@@H]4O[C@H](CO[C@@H]5O[C@@H](C)[C@H](O)[C@H]6OC(C)(C)O[C@@H]56)[C@@H](O)[C@H](O)[C@H]4O)cc3o2)cc1O [No. 32, 7-O-(2,3-O,O-isopropylidene-6-α-L-rhamnosyl-β-D-glucosyl)diosmitin]",inhibition in vivo at 150 mg/kg,[1]; 1/2 h,5%
same,inhibition in vivo at 200 mg/kg,[1]; 1/2 h,8%
same,inhibition in vivo at 300 mg/kg,[1]; 1/2 h,0%
same,inhibition in vivo at 150 mg/kg,"[1]; 1 h, 1 h 1/2",37%
same,inhibition in vivo at 150 mg/kg,"[1]; 1 h, 1 h",17%
same,inhibition in vivo at 200 mg/kg,"[1]; 1 h, 1 h 1/2",35%
same,inhibition in vivo at 200 mg/kg,"[1]; 1 h, 1 h",16%
same,inhibition in vivo at 300 mg/kg,"[1]; 1 h, 1 h 1/2",38%
same,inhibition in vivo at 300 mg/kg,"[1]; 1 h, 1 h",8%
same,inhibition in vivo at 150 mg/kg,"[1]; 2 h, 2 h",49%
same,inhibition in vivo at 200 mg/kg,"[1]; 2 h, 2 h",43%
same,inhibition in vivo at 300 mg/kg,"[1]; 2 h, 2 h",44%
same,inhibition in vivo at 150 mg/kg,"[1]; 3 h, 3 h",43%
same,inhibition in vivo at 200 mg/kg,"[1]; 3 h, 3 h",36%
same,inhibition in vivo at 300 mg/kg,"[1]; 3 h, 3 h",31%
same,inhibition in vivo at 150 mg/kg,"[1]; 4 h, 4 h",42%
same,inhibition in vivo at 200 mg/kg,"[1]; 4 h, 4 h",30%
same,inhibition in vivo at 300 mg/kg,"[1]; 4 h, 4 h",32%
same,inhibition in vivo at 150 mg/kg,"[1]; 5 h, 5 h",37%
same,inhibition in vivo at 200 mg/kg,"[1]; 5 h, 5 h",20%
same,inhibition in vivo at 300 mg/kg,"[1]; 5 h, 5 h",43%
same,inhibition in vivo at 150 mg/kg,"[1]; 6 h, 6 h",34%
same,inhibition in vivo at 200 mg/kg,"[1]; 6 h, 6 h",20%
same,inhibition in vivo at 300 mg/kg,"[1]; 6 h, 6 h",36%
same,percentage reduction of capillary permeability,[2]; 10 mg/kg i.p.,7%
same,percentage reduction of capillary permeability,[2]; 75 mg/kg i.p.,32%
same,mortality at 336 h,[3]; 1000 mg/kg i.p.,0%
"CC1(C)OC[C@H]2O[C@@H](Oc3cc4ccc(=O)oc4cc3O)[C@H](O)[C@@H](O)[C@@H]2O1 [No. 15, 6-O-(4,6-O,O-isopropylidene-β-D-glucosyl) esculetol]",solubility,[4],9.2 mg/mL
same,inhibition at 100 µM,[5],60%
same,inhibition at 10 µM,[5],9%
same,inhibition in vivo at 200 mg/kg,[1]; 1/2 h,18%
same,inhibition in vivo at 200 mg/kg,"[1]; 1 h, 1 h 1/2",20%
same,inhibition in vivo at 200 mg/kg,"[1]; 1 h, 1 h",26%
same,inhibition in vivo at 200 mg/kg,"[1]; 2 h, 2 h",13%
same,inhibition in vivo at 200 mg/kg,"[1]; 3 h, 3 h",1%
same,inhibition in vivo at 200 mg/kg,"[1]; 4 h, 4 h",7%
same,inhibition in vivo at 200 mg/kg,"[1]; 5 h, 5 h",10%
same,inhibition in vivo at 200 mg/kg,"[1]; 6 h, 6 h",17%
same,"capillary resistance, effect observed",[6]; 25 mg/kg i.p.,17 ± 11.8 u cm Hg/h
same,"capillary resistance, effect observed",[6]; 50 mg/kg i.p.,20 ± 12.9 u cm Hg/h
same,mortality at 336 h,[3]; 500 mg/kg i.p.,10%
same,mortality at 336 h,[3]; 1000 mg/kg i.p.,0%
same,mortality at 336 h,[3]; 1500 mg/kg i.p.,20%
same,mortality at 336 h,[3]; 2000 mg/kg i.p.,70%
"C[C@@H]1O[C@@H](O[C@H]2[C@H](Oc3cc(O)c4c(c3)OC(c3ccc(O)cc3)CC4=O)O[C@H](CO)[C@@H](O)[C@@H]2O)[C@@H]2OC(C)(C)O[C@@H]2[C@H]1O (stereo partly drawn) [No. 8, 7-O-(2,3-O,O-isopropylidene-2-α-L-rhamnosyl-β-D-glucosyl)-naringenin]",inhibition at 100 µM,[5],25%
same,inhibition at 10 µM,[5],0%
same,inhibition in vivo at 100 mg/kg,[1]; 1/2 h,23%
same,inhibition in vivo at 200 mg/kg,[1]; 1/2 h,9%
same,inhibition in vivo at 300 mg/kg,[1]; 1/2 h,62%
same,inhibition in vivo at 100 mg/kg,"[1]; 1 h, 1 h 1/2",85%
same,inhibition in vivo at 100 mg/kg,"[1]; 1 h, 1 h",64%
same,inhibition in vivo at 200 mg/kg,"[1]; 1 h, 1 h 1/2",70%
same,inhibition in vivo at 200 mg/kg,"[1]; 1 h, 1 h",42%
same,inhibition in vivo at 300 mg/kg,"[1]; 1 h, 1 h 1/2",74%
same,inhibition in vivo at 300 mg/kg,"[1]; 1 h, 1 h",78%
same,inhibition in vivo at 100 mg/kg,"[1]; 2 h, 2 h",75%
same,inhibition in vivo at 200 mg/kg,"[1]; 2 h, 2 h",60%
same,inhibition in vivo at 300 mg/kg,"[1]; 2 h, 2 h",73%
same,inhibition in vivo at 100 mg/kg,"[1]; 3 h, 3 h",48%
same,inhibition in vivo at 200 mg/kg,"[1]; 3 h, 3 h",28%
same,inhibition in vivo at 300 mg/kg,"[1]; 3 h, 3 h",50%
same,inhibition in vivo at 100 mg/kg,"[1]; 4 h, 4 h",48%
same,inhibition in vivo at 200 mg/kg,"[1]; 4 h, 4 h",27%
same,inhibition in vivo at 300 mg/kg,"[1]; 4 h, 4 h",50%
same,inhibition in vivo at 100 mg/kg,"[1]; 5 h, 5 h",35%
same,inhibition in vivo at 200 mg/kg,"[1]; 5 h, 5 h",22%
same,inhibition in vivo at 300 mg/kg,"[1]; 5 h, 5 h",33%
same,inhibition in vivo at 100 mg/kg,"[1]; 6 h, 6 h",37%
same,inhibition in vivo at 200 mg/kg,"[1]; 6 h, 6 h",24%
same,inhibition in vivo at 300 mg/kg,"[1]; 6 h, 6 h",35%
same,mortality at 336 h,[3]; 500 mg/kg i.p.,0%
same,mortality at 336 h,[3]; 1000 mg/kg i.p.,0%
same,mortality at 336 h,[3]; 2000 mg/kg i.p.,0%
"O=c1ccc2cc(O[C@@H]3O[C@@H]4COC5(CCCCC5)O[C@H]4[C@H](O)[C@H]3O)c(O)cc2o1 [No. 16, 6-O-(4,6-O,O-cyclohexylidene-β-D-glucosyl) esculetol]",solubility,[4],1.25 mg/mL
same,inhibition at 100 µM,[5],63%
same,inhibition at 10 µM,[5],14%
same,inhibition in vivo at 200 mg/kg,[1]; 1/2 h,59%
same,inhibition in vivo at 200 mg/kg,"[1]; 1 h, 1 h 1/2",45%
same,inhibition in vivo at 200 mg/kg,"[1]; 1 h, 1 h",59%
same,inhibition in vivo at 200 mg/kg,"[1]; 2 h, 2 h",46%
same,inhibition in vivo at 200 mg/kg,"[1]; 3 h, 3 h",30%
same,inhibition in vivo at 200 mg/kg,"[1]; 4 h, 4 h",23%
same,inhibition in vivo at 200 mg/kg,"[1]; 5 h, 5 h",27%
same,inhibition in vivo at 200 mg/kg,"[1]; 6 h, 6 h",24%
same,"capillary resistance, effect observed",[6]; 25 mg/kg i.p.,8.8 ± 6.8 u cm Hg/h
same,"capillary resistance, effect observed",[6]; 50 mg/kg i.p.,23 ± 11.1 u cm Hg/h
same,mortality at 336 h,[3]; 500 mg/kg i.p.,10%
same,mortality at 336 h,[3]; 750 mg/kg i.p.,80%
same,mortality at 336 h,[3]; 1000 mg/kg i.p.,80%
